# According to ChEMBL document CHEMBL2062444, “The Rhodadyns, a New Class of Small Molecule Inhibitors of Dynamin GTPase Activity” (ACS Med Chem Lett, 2012):
# The source made the active and inactive calls.
# Key:
# [1] = organism: Ovis aries; assay: Inhibition of sheep dynamin 1 GTPase activity up to 300 uM after 30 mins by malachite-green method
# [2] = organism: Homo sapiens; assay: Inhibition of clathrin at 100 uM
# [3] = Inhibition of sheep dynamin 1 GTPase activity after 30 mins by malachite-green method; design: species or system Ovis aries
# [4] = molecular target: T1, Dynamin-1 (Homo sapiens) (UniProt Q05193); assay: Inhibition of dynamin1-mediated endocytosis in human U2OS cells assessed as inhibition of Texas red-Tf uptake incubated up to 300 uM for 30 mins prior to Texas red-Tf addition measured after 8 mins by receptor-mediated endocytosis assay; assay type: cell-based
# T1 sequence (whole entry): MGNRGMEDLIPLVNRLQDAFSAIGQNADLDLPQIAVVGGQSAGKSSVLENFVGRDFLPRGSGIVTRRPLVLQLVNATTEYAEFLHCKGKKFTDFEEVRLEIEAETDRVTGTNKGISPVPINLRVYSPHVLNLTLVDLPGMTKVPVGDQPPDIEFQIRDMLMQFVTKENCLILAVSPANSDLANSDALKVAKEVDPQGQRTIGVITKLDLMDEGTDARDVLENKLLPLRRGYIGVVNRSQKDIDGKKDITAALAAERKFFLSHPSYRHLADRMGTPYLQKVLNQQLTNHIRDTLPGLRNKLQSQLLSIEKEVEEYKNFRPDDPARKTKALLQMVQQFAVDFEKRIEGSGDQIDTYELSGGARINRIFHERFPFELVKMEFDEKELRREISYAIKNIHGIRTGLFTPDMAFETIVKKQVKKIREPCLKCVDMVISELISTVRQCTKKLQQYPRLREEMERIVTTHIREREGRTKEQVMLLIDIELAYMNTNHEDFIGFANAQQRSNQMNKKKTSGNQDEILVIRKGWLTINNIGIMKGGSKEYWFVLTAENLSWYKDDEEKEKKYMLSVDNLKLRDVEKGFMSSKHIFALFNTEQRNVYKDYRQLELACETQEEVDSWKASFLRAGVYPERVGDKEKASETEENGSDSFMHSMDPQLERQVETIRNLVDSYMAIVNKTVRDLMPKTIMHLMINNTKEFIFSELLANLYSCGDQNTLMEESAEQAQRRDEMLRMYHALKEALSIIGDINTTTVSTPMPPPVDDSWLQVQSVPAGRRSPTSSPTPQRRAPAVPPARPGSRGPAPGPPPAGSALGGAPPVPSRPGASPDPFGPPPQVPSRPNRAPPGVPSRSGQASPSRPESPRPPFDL
Structure (SMILES),inhibition [1],inhibition [2],IC50 [3] [µM],inhibition [4]
C=CCN1C(=O)/C(=C/c2ccc3nsnc3c2)SC1=S,inactive,inactive,,
O=C(O)CCN1C(=O)/C(=C/c2ccc3nsnc3c2)SC1=S,,inactive,> 100,
CCN1C(=O)/C(=C/c2ccc(OCCCN(C)C)cc2)SC1=S,,inactive,6.4,
CN(C)CCCOc1ccc(/C=C2\SC(=S)N(CCC(=O)O)C2=O)cc1,,inactive,,
O=C1NC(=S)S/C1=C\c1ccc2nsnc2c1,inactive,inactive,,
O=C1NC(=S)S/C1=C\C1=Cc2ccccc2OC1,,inactive,90,
O=C1/C(=C/c2csc3ccc(Cl)cc23)SC(=S)N1Cc1ccccc1,inactive,inactive,,
O=C(O)CCN1C(=O)/C(=C/C2=Cc3ccccc3OC2)SC1=S,,inactive,23.5,
CCN1C(=O)/C(=C/c2ccc(-c3ccccc3)cc2)SC1=S,inactive,inactive,,
CCN1C(=O)/C(=C/c2cnc3ccccc3n2)SC1=S,inactive,inactive,,
O=C1/C(=C/c2cc(Cl)cc(Cl)c2)SC(=S)N1Cc1ccccc1,,inactive,50,inactive
O=C1NC(=S)S/C1=C\c1csc2ccc(Cl)cc12,,inactive,5.5,
O=C(O)CCN1C(=O)/C(=C/c2csc3ccc(Cl)cc23)SC1=S,,inactive,48,inactive
C=CCN1C(=O)/C(=C/c2ccc(OCCCN(C)C)cc2)SC1=S,,inactive,3.6,
CCN1C(=O)/C(=C/c2csc3ccc(Cl)cc23)SC1=S,inactive,inactive,,
O=C(O)CN1C(=O)/C(=C/c2ccc3nonc3c2)SC1=S,inactive,inactive,,
O=C1NC(=S)S/C1=C\c1coc2c(Cl)cc(Cl)cc2c1=O,,inactive,24,
O=C1/C(=C/c2coc3c(Cl)cc(Cl)cc3c2=O)SC(=S)N1Cc1ccccc1,,inactive,7.4,
CCN1C(=O)/C(=C/c2coc3c(Cl)cc(Cl)cc3c2=O)SC1=S,,inactive,5.1,
O=C(O)CCN1C(=O)/C(=C/c2coc3c(Cl)cc(Cl)cc3c2=O)SC1=S,,inactive,10,

Structure (SMILES),inhibition [1],inhibition [2],IC50 [3] [µM],inhibition [4]
O=C(O)CN1C(=O)/C(=C/c2ccc(Br)cc2)SC1=S,,inactive,> 100,
CN(C)CCCOc1ccc(/C=C2\SC(=S)NC2=O)cc1,inactive,inactive,,
O=C(O)CN1C(=O)/C(=C/c2coc3c(Cl)cc(Cl)cc3c2=O)SC1=S,,inactive,3.4,
C=CCN1C(=O)/C(=C/c2csc3ccc(Cl)cc23)SC1=S,inactive,inactive,,
O=C(O)CCN1C(=O)/C(=C/c2cc(Cl)cc(Cl)c2)SC1=S,,inactive,4.4,inactive
O=C1NC(=S)S/C1=C\c1ccc(-c2ccccc2)cc1,inactive,inactive,,
C=CCN1C(=O)/C(=C/c2cc(Cl)cc(Cl)c2)SC1=S,,inactive,31,inactive
O=C1/C(=C/c2cnc3ccccc3n2)SC(=S)N1Cc1ccccc1,inactive,inactive,,
O=C(O)CCN1C(=O)/C(=C/c2ccc(-c3ccccc3)cc2)SC1=S,,inactive,42,
CCN1C(=O)/C(=C/c2cc(Cl)cc(Cl)c2)SC1=S,,inactive,3.1,inactive
CCN1C(=O)/C(=C/C2=Cc3ccccc3OC2)SC1=S,inactive,inactive,,
C=CCN1C(=O)/C(=C/c2ccc(-c3ccccc3)cc2)SC1=S,inactive,inactive,,
O=C1/C(=C/c2ccc(-c3ccccc3)cc2)SC(=S)N1Cc1ccccc1,inactive,inactive,,
O=C(O)CN1C(=O)/C(=C/C2=Cc3ccccc3OC2)SC1=S,inactive,inactive,,
O=C1NC(=S)S/C1=C\c1cc(Cl)cc(Cl)c1,,inactive,7.5,
O=C(O)CN1C(=O)/C(=C/c2ccc(-c3ccccc3)cc2)SC1=S,,inactive,73,
O=C1NC(=S)S/C1=C\c1cnc2ccccc2n1,,inactive,43,inactive
C=CCN1C(=O)/C(=C/c2cnc3ccccc3n2)SC1=S,inactive,inactive,,
O=C(O)CN1C(=O)/C(=C/c2cc(Cl)cc(Cl)c2)SC1=S,,inactive,5.5,inactive
O=C1/C(=C/c2ccc3nonc3c2)SC(=S)N1Cc1ccccc1,,inactive,53,

Structure (SMILES),inhibition [1],inhibition [2],IC50 [3] [µM],inhibition [4]
O=C(O)CN1C(=O)/C(=C/c2ccc3nsnc3c2)SC1=S,inactive,inactive,,
C=CCN1C(=O)/C(=C/c2ccc(Br)cc2)SC1=S,inactive,inactive,,
CCN1C(=O)/C(=C/c2ccc3nsnc3c2)SC1=S,inactive,inactive,,
O=C1/C(=C/C2=Cc3ccccc3OC2)SC(=S)N1Cc1ccccc1,inactive,inactive,,
O=C1NC(=S)S/C1=C\c1ccc(Br)cc1,inactive,inactive,,
O=C(O)CCN1C(=O)/C(=C/c2ccc(Br)cc2)SC1=S,,inactive,9,
CN(C)CCCOc1ccc(/C=C2\SC(=S)N(CC(=O)O)C2=O)cc1,inactive,inactive,,
C=CCN1C(=O)/C(=C/c2coc3c(Cl)cc(Cl)cc3c2=O)SC1=S,,inactive,> 100,
CN(C)CCCOc1ccc(/C=C2\SC(=S)N(Cc3ccccc3)C2=O)cc1,,inactive,22,inactive
C=CCN1C(=O)/C(=C/C2=Cc3ccccc3OC2)SC1=S,inactive,inactive,,
O=C1NC(=S)S/C1=C\c1ccc2nonc2c1,,inactive,7.4,
CCN1C(=O)/C(=C/c2ccc(Br)cc2)SC1=S,inactive,inactive,,
CCN1C(=O)/C(=C/c2ccc3nonc3c2)SC1=S,inactive,inactive,,
O=C(O)CN1C(=O)/C(=C/c2cnc3ccccc3n2)SC1=S,,inactive,> 100,
C=CCN1C(=O)/C(=C/c2ccc3nonc3c2)SC1=S,inactive,inactive,,
O=C1/C(=C/c2ccc(Br)cc2)SC(=S)N1Cc1ccccc1,,inactive,134,
O=C(O)CCN1C(=O)/C(=C/c2cnc3ccccc3n2)SC1=S,inactive,inactive,,
O=C(O)CCN1C(=O)/C(=C/c2ccc3nonc3c2)SC1=S,inactive,inactive,,
O=C(O)CN1C(=O)/C(=C/c2csc3ccc(Cl)cc23)SC1=S,,inactive,12.3,
O=C1/C(=C/c2ccc3nsnc3c2)SC(=S)N1Cc1ccccc1,inactive,inactive,,
